Results as given in the NIST ThermoML archive (doi:10.1016/j.jct.2018.10.006).
± gives the expanded uncertainty stated by the source.

Assay: molar heat capacity at constant pressure
Conditions: 101.33 kPa, Crystal 2

O=P([O-])([O-])[O-].[Cs+].[Ni+2] [cesium nickel monophosphate]
Conditions | molar heat capacity at constant pressure [J/K/mol]
160 K, Small (less than 1 g) adiabatic calorimetry | 103.68 ± 0.5
162.35 K, Small (less than 1 g) adiabatic calorimetry | 104.76 ± 0.58
165.65 K, Small (less than 1 g) adiabatic calorimetry | 106.01 ± 0.58
168.95 K, Small (less than 1 g) adiabatic calorimetry | 107.84 ± 0.58
170 K, Small (less than 1 g) adiabatic calorimetry | 107.84 ± 0.58
172.25 K, Small (less than 1 g) adiabatic calorimetry | 108.75 ± 0.58
175.54 K, Small (less than 1 g) adiabatic calorimetry | 109.83 ± 0.58
178.83 K, Small (less than 1 g) adiabatic calorimetry | 111.5 ± 0.58
180 K, Small (less than 1 g) adiabatic calorimetry | 111.83 ± 0.58
182.12 K, Small (less than 1 g) adiabatic calorimetry | 112.83 ± 0.58
185.4 K, Small (less than 1 g) adiabatic calorimetry | 113.82 ± 0.58
188.67 K, Small (less than 1 g) adiabatic calorimetry | 115.24 ± 0.58
190 K, Small (less than 1 g) adiabatic calorimetry | 115.4 ± 0.58
191.94 K, Small (less than 1 g) adiabatic calorimetry | 116.32 ± 0.58
195.21 K, Small (less than 1 g) adiabatic calorimetry | 116.98 ± 0.58
198.48 K, Small (less than 1 g) adiabatic calorimetry | 118.07 ± 0.58
200 K, Small (less than 1 g) adiabatic calorimetry | 118.73 ± 0.58
201.74 K, Small (less than 1 g) adiabatic calorimetry | 119.56 ± 0.58
205 K, Small (less than 1 g) adiabatic calorimetry | 120.14 ± 0.58
208.27 K, Small (less than 1 g) adiabatic calorimetry | 121.06 ± 0.58
210 K, Small (less than 1 g) adiabatic calorimetry | 121.64 ± 0.58
211.53 K, Small (less than 1 g) adiabatic calorimetry | 122.14 ± 0.58
214.79 K, Small (less than 1 g) adiabatic calorimetry | 122.56 ± 0.58
218.05 K, Small (less than 1 g) adiabatic calorimetry | 123.64 ± 0.58
220 K, Small (less than 1 g) adiabatic calorimetry | 124.38 ± 0.58
221.32 K, Small (less than 1 g) adiabatic calorimetry | 124.22 ± 0.58
224.58 K, Small (less than 1 g) adiabatic calorimetry | 125.63 ± 0.67
227.84 K, Small (less than 1 g) adiabatic calorimetry | 126.38 ± 0.67
230 K, Small (less than 1 g) adiabatic calorimetry | 126.88 ± 0.67
231.11 K, Small (less than 1 g) adiabatic calorimetry | 127.13 ± 0.67
234.38 K, Small (less than 1 g) adiabatic calorimetry | 128.21 ± 0.67
237.64 K, Small (less than 1 g) adiabatic calorimetry | 129.12 ± 0.67
240 K, Small (less than 1 g) adiabatic calorimetry | 129.37 ± 0.67
240.88 K, Small (less than 1 g) adiabatic calorimetry | 129.62 ± 0.67
244.15 K, Small (less than 1 g) adiabatic calorimetry | 130.7 ± 0.67
247.41 K, Small (less than 1 g) adiabatic calorimetry | 131.53 ± 0.67
250 K, Small (less than 1 g) adiabatic calorimetry | 132.03 ± 0.67
250.68 K, Small (less than 1 g) adiabatic calorimetry | 132.28 ± 0.67
253.95 K, Small (less than 1 g) adiabatic calorimetry | 133.03 ± 0.67
257.21 K, Small (less than 1 g) adiabatic calorimetry | 133.7 ± 0.67
260 K, Small (less than 1 g) adiabatic calorimetry | 134.94 ± 0.67
260.47 K, Small (less than 1 g) adiabatic calorimetry | 135.11 ± 0.67
263.74 K, Small (less than 1 g) adiabatic calorimetry | 135.94 ± 0.67
266.99 K, Small (less than 1 g) adiabatic calorimetry | 137.19 ± 0.67
270 K, Small (less than 1 g) adiabatic calorimetry | 138.19 ± 0.67
270.25 K, Small (less than 1 g) adiabatic calorimetry | 138.69 ± 0.67
273.15 K, Small (less than 1 g) adiabatic calorimetry | 139.27 ± 0.67
273.51 K, Small (less than 1 g) adiabatic calorimetry | 139.52 ± 0.67
276.77 K, Small (less than 1 g) adiabatic calorimetry | 140.43 ± 0.67
280 K, Small (less than 1 g) adiabatic calorimetry | 141.68 ± 0.67
280.02 K, Small (less than 1 g) adiabatic calorimetry | 141.6 ± 0.67
283.26 K, Small (less than 1 g) adiabatic calorimetry | 142.68 ± 0.67
286.51 K, Small (less than 1 g) adiabatic calorimetry | 143.84 ± 0.67
289.74 K, Small (less than 1 g) adiabatic calorimetry | 145 ± 0.67
290 K, Small (less than 1 g) adiabatic calorimetry | 145.42 ± 0.67
292.94 K, Small (less than 1 g) adiabatic calorimetry | 146.5 ± 0.75
296.16 K, Small (less than 1 g) adiabatic calorimetry | 147.25 ± 0.75
298.15 K, Small (less than 1 g) adiabatic calorimetry | 148.41 ± 0.75
299.38 K, Small (less than 1 g) adiabatic calorimetry | 148.58 ± 0.75
300 K, Small (less than 1 g) adiabatic calorimetry | 149.08 ± 0.75
302.59 K, Small (less than 1 g) adiabatic calorimetry | 150.41 ± 0.75
305.8 K, Small (less than 1 g) adiabatic calorimetry | 151.41 ± 0.75
309.01 K, Small (less than 1 g) adiabatic calorimetry | 152.57 ± 0.75
310 K, Small (less than 1 g) adiabatic calorimetry | 152.65 ± 0.75
312.23 K, Small (less than 1 g) adiabatic calorimetry | 153.82 ± 0.75
315.44 K, Small (less than 1 g) adiabatic calorimetry | 154.82 ± 0.75
318.66 K, Small (less than 1 g) adiabatic calorimetry | 155.48 ± 0.75
320 K, Small (less than 1 g) adiabatic calorimetry | 155.9 ± 0.75
320.8 K, DSC | 155.48 ± 6.7
321.8 K, DSC | 156.31 ± 6.7
321.9 K, Small (less than 1 g) adiabatic calorimetry | 156.23 ± 0.75
322.8 K, DSC | 156.31 ± 6.7
323.8 K, DSC | 156.31 ± 6.7
324.8 K, DSC | 157.14 ± 6.7
325.15 K, Small (less than 1 g) adiabatic calorimetry | 157.39 ± 0.75
325.8 K, DSC | 157.14 ± 6.7
326.8 K, DSC | 157.97 ± 6.7
327.8 K, DSC | 157.97 ± 6.7
328.41 K, Small (less than 1 g) adiabatic calorimetry | 158.22 ± 0.75
328.8 K, DSC | 158.81 ± 6.7
329.8 K, DSC | 158.81 ± 6.7
330 K, Small (less than 1 g) adiabatic calorimetry | 158.89 ± 0.75
330.8 K, DSC | 159.64 ± 6.7
331.69 K, Small (less than 1 g) adiabatic calorimetry | 159.39 ± 0.75
331.8 K, DSC | 159.64 ± 6.7
332.8 K, DSC | 159.64 ± 6.7
333.8 K, DSC | 160.47 ± 6.7
334.8 K, DSC | 160.47 ± 6.7
334.97 K, Small (less than 1 g) adiabatic calorimetry | 160.3 ± 0.75
335.8 K, DSC | 161.3 ± 6.7
336.8 K, DSC | 161.3 ± 6.7
337.8 K, DSC | 161.3 ± 6.7
338.28 K, Small (less than 1 g) adiabatic calorimetry | 161.22 ± 0.75
338.8 K, DSC | 162.13 ± 6.7
339.8 K, DSC | 162.13 ± 6.7
340 K, Small (less than 1 g) adiabatic calorimetry | 161.97 ± 4.1
340.8 K, DSC | 162.13 ± 6.7
341.58 K, Small (less than 1 g) adiabatic calorimetry | 162.8 ± 0.75
341.8 K, DSC | 162.96 ± 7.5
342.8 K, DSC | 162.96 ± 7.5
343.8 K, DSC | 162.96 ± 7.5
